“Also recorded” adds a separate entry of the source.
Columns and labels:
[1] = tested on: Human umbilical vein endothelial cells (HUVEC); test: Nitric oxide production by HUVEC (nitrite in culture medium, Griess reaction); format: cell-based; conditions: for production of nitric oxide by HUVEC (in words): 48 hour incubation
Experimental: The culture medium used was Medium 200 (Cascade Biologics Inc.) supplemented with Low Serum Growth Supplement (Cascade Biologics Inc.) and 20% fetal calf serum (DAP).
The cocoa procyanidins evaluated were the epicatechin monomer, the dimer, the trimer, the tetramer, the pentamer, and the heptamer. The nitrite content of cocoa procyanidins were evaluated. At the maximal concentration used (100 ? g/ml), no nitrite was detected.
Human umbilical vein endothelial cells (HUVEC) were purchased at primary culture stage from Cascade Biologics Inc. (Portland). Cells were cultured in Medium supplemented with Low Serum Growth Supplement (LSGS) and 20% Fetal Calf Serum (FCS) in 75 cm^2 flasks. The cells were seeded for a week following treatment with trypsin-EDTA (2 ml/flask) at 37° C. under 5% CO2 atmosphere. Trypsin was neutralized upon addition of 3 ml. FCS.
The cell suspension was centrifuged for 10 min. at 1200 rpm and the cell pellet was resuspended in the culture medium described above.
Nitric oxide synthase activity was assessed by measuring the nitrite concentration in the culture medium. HUVEC were used between passage 2 to 13. Cells were cultured in 24-well culture plates at the concentration of 5×10^5 cells ml in Medium 200 containing LSGS (300 μl per well), and 20% CS. After a 24 hour to 48 hour incubation period at 37° C. under a 5% CO2 atmosphere, the cells were used confluent (2.5×10^6 cells). Medium was removed and fresh was added.
Cocoa procyanidin monomer and oligomers were added to the culture medium at 100 μg/ml, 10 μg/ml or 1 μg/ml (final concentration). Controls consisted of cells cultured without the procyanidins. Reference compounds included acetylcholine, ionomycin (NO synthase stimulator via calcium entry), lipopolysaccharide (NO synthase inductor), and N-methyl L-arginine acetate (inhibitor of NO synthase). The reference compounds were used in order to evidence nitrite production from endothelial NO synthesis.
NO production was estimated by measurement of nitrite (NO2) concentration in culture supernatants according to the Griess reaction. Briefly, 50 μl of conditional medium were incubated with 150 μl of Griess reagent (1% sulfanilamide in 30% acetic acid/0.1% N-(1-naphtyl)-ethylenediamine dihydrochloride in 60% acetic acid) at room temperature for 2 min. The absorbance at 540 nm was determined in a Labsystems MCC/340 multiskan. Nitrite concentration was determined by using sodium nitrite as standard and analyzed using ΔSOFT 2.12 software. The cell-free medium and 100 μg/ml of procyanidins contained no detectable nitrite concentrations.
Raw Data^1: Showing the Effect of Cocoa Procyanidins On Nitric Oxide Production by HUVEC ^1Results are expressed as μmol nitrite/10^6 cells/48 h

[2] = tested on: Aortic rings from New Zealand white rabbits; test: Endothelium dependent relaxation of pre-contracted rabbit aortic rings in organ baths
Experimental: Aortic rings from New Zealand white rabbits were set up in 20 ml organ baths. […] The cocoa procyanidins tested were the monomer, dimer, trimer, tetramer, pentamer, hexamer.
Rings were incubated for 30′ with these cocoa procyanidins (10^−5M) and re-tested with Ach and cocoa procyanidins (10^−7 to 10^−4). Incubation of the tissue with these cocoa procyanadin(s) attenuated EDR evoked by both the cocoa procyanidins and Ach acutely. The maximum relaxation to Ach pre-incubation, 49±5%; post pentamer incubation, 2±1.4%; post combo 2 incubation, 0.8±0.8%: to pentamer pre-incubation, 46.5±4.5%; post incubation, 6.8±3.2%: to combo 2 pre-incubation, 54.3±7%; post incubation, 1.7±1.1%, n=5).

[3] = tested on: arterial blood pressure of anesthetized guinea-pigs; test: Arterial blood pressure of anesthetized guinea-pigs after intravenous injection; format: in vivo; conditions: for Hypertension (%)* Exp 1 / Hypertension (%)* Exp 2 / Hypertension (%)* Exp 3 / Hypertension (%)* Exp 4 / Hypertension (%)* Exp 5 / Hypertension (%)* Exp 6: % of control mean arterial blood pressure
Experimental: Guinea-pigs (around 400 g body weight, male and female) were anesthetized upon injection of 40 mg/kg sodium pentobarbital. The carotid artery was canulated for monitoring of the arterial blood pressure through a Gould pressure transducer (Model P500). Each of the six cocoa procyanidins, at concentrations of 1, 3, 10, and 25 mg/kg, was injected intravenously through the jugular vein. Alterations in blood pressure were recorded on a polygraph.
No marked effect of the vehicle containing DMSO was noted when the dose of 25 mg/kg of the cocoa procyanidin was used (15±5%).
The effects of administering of 1, 3, 10, or 25 mg/kg cocoa procyanidins on arterial blood pressure of anesthetized guinea-pigs was investigated. Upon intravenous injection, the procyanidins monomer and dimer evoked a decrease in blood pressure of about 20%, i.e., not markedly different from injection of solvent alone (15±5%, n=5). […] The rank of potency of the various cocoa procyanidins, considering the highest dose used, was as follows: hexamer=tetramer>pentamer>trimer.

[4] = preliminary experiments, single dose 10^−5 M, rings pre-contracted with norepinephine 10^−5 M

CC(=O)OCC[N+](C)(C)C [Acetylcholine, acetylcholine]
Nitric Oxide Production by HUVEC, Exp. 1 ([1]; Acetylcholine 10^−5 M): 2.5 μmol nitrite/10^6 cells/48 h | Nitric Oxide Production by HUVEC, Exp. 2 ([1]; Acetylcholine 10^−5 M): 2.6 μmol nitrite/10^6 cells/48 h | Nitric Oxide Production by HUVEC, Exp. 3 ([1]; Acetylcholine 10^−5 M): 2.8 μmol nitrite/10^6 cells/48 h | Nitric Oxide Production by HUVEC, Mean ([1]; Acetylcholine 10^−5 M): 2.6 μmol nitrite/10^6 cells/48 h | % Relaxation ([2]; acute exposure, dose 10^−5 M): 49 ± 5.1% | % Relaxation ([2]; acute exposure, dose 10^−6 M): 42.2 ± 4.2% | % Relaxation ([2]; acute exposure, dose 10^−7 M): 15.2 ± 2.6% | maximum relaxation to Ach ([2]; pre-incubation, n=5): 49±5% | % Relaxation [2, 4]: 68%

C[C@H](CCC(=O)O)C[C@H](C)C[C@H](C)C(=O)/C=C(\O)[C@H](C)C[C@H](C)C/C=C/[C@@H](C)[C@@H](O)[C@@H](C)[C@@H](O)C[C@@H]1CC[C@@](C)([C@H]2CC[C@@](C)([C@@H](C)O)O2)O1 [Ionomycin, ionomycin, reference compound]
production of nitric oxide by HUVEC (in words) ([1]; 1 μM): marked production of nitric oxide | Nitric Oxide Production by HUVEC, Exp. 1 ([1]; Ionomycin 1 μM): 7.8 μmol nitrite/10^6 cells/48 h | Nitric Oxide Production by HUVEC, Exp. 2 ([1]; Ionomycin 1 μM): 6.3 μmol nitrite/10^6 cells/48 h | Nitric Oxide Production by HUVEC, Exp. 3 ([1]; Ionomycin 1 μM): 5.4 μmol nitrite/10^6 cells/48 h | Nitric Oxide Production by HUVEC, Mean ([1]; Ionomycin 1 μM): 6.5 μmol nitrite/10^6 cells/48 h

CC(=O)O.CN[C@@H](CCCNC(=N)N)C(=O)O [LNMA, N-methyl L-arginine acetate, reference compound]
production of nitric oxide by HUVEC evoked by ionomycin and lipolysaccharide (in words) ([1]; N-methyl L-arginine added to the incubation medium): blocked

Oc1cc(O)c2c(c1)O[C@H](c1ccc(O)c(O)c1)[C@H](O)C2 [Monomer, epicatechin]
production of NO from HUVEC, dose dependence (in words) ([1]; 1, 10, 100 μg/ml): marked production but only at 100 μg/ml concentration | Nitric Oxide Production by HUVEC, Exp. 1 ([1]; cocoa procyanidin 1 μg/ml): 2.3 μmol nitrite/10^6 cells/48 h | Nitric Oxide Production by HUVEC, Exp. 2 ([1]; cocoa procyanidin 1 μg/ml): 2.5 μmol nitrite/10^6 cells/48 h | Nitric Oxide Production by HUVEC, Exp. 3 ([1]; cocoa procyanidin 1 μg/ml): 2.6 μmol nitrite/10^6 cells/48 h | Nitric Oxide Production by HUVEC, Mean ([1]; cocoa procyanidin 1 μg/ml): 2.5 μmol nitrite/10^6 cells/48 h | Nitric Oxide Production by HUVEC, Exp. 1 ([1]; cocoa procyanidin 10 μg/ml): 2.7 μmol nitrite/10^6 cells/48 h | Nitric Oxide Production by HUVEC, Exp. 2 ([1]; cocoa procyanidin 10 μg/ml): 2.8 μmol nitrite/10^6 cells/48 h | Nitric Oxide Production by HUVEC, Exp. 3 ([1]; cocoa procyanidin 10 μg/ml): 2.6 μmol nitrite/10^6 cells/48 h | Nitric Oxide Production by HUVEC, Mean ([1]; cocoa procyanidin 10 μg/ml): 2.7 μmol nitrite/10^6 cells/48 h | Nitric Oxide Production by HUVEC, Exp. 1 ([1]; cocoa procyanidin 100 μg/ml): 5.4 μmol nitrite/10^6 cells/48 h | Nitric Oxide Production by HUVEC, Exp. 2 ([1]; cocoa procyanidin 100 μg/ml): 5.9 μmol nitrite/10^6 cells/48 h | Nitric Oxide Production by HUVEC, Exp. 3 ([1]; cocoa procyanidin 100 μg/ml): 5.7 μmol nitrite/10^6 cells/48 h | Nitric Oxide Production by HUVEC, Mean ([1]; cocoa procyanidin 100 μg/ml): 5.7 μmol nitrite/10^6 cells/48 h | potency of the various procyanidins, NO production (rank) ([1]; highest dose used, 100 μg/ml): dimer>trimer>heptamer=pentmer=tetramer>monomer; also recorded: dimer>trimer>hexamer=pentamer=tetramer>monomer | Hypertension (%)* Exp 1 ([3]; 1 mg/kg intravenously): 55.32% | Hypertension (%)* Exp 2 ([3]; 1 mg/kg intravenously): 70.31% | Hypertension (%)* Exp 3 ([3]; 1 mg/kg intravenously): 70.27% | Hypertension (%)* Exp 4 ([3]; 1 mg/kg intravenously): 75.99% | Hypertension (%)* Exp 5 ([3]; 1 mg/kg intravenously): 71.92% | Hypertension (%)* Exp 6 ([3]; 1 mg/kg intravenously): 77.97% | Hypertension (%)* Exp 1 ([3]; 3 mg/kg intravenously): 62.99% | Hypertension (%)* Exp 2 ([3]; 3 mg/kg intravenously): 72.62% | Hypertension (%)* Exp 3 ([3]; 3 mg/kg intravenously): 74.59% | Hypertension (%)* Exp 4 ([3]; 3 mg/kg intravenously): 73.33% | Hypertension (%)* Exp 5 ([3]; 3 mg/kg intravenously): 76.04% | Hypertension (%)* Exp 6 ([3]; 3 mg/kg intravenously): 70.44% | Hypertension (%)* Exp 1 ([3]; 10 mg/kg intravenously): 58.95% | Hypertension (%)* Exp 2 ([3]; 10 mg/kg intravenously): 66.53% | Hypertension (%)* Exp 3 ([3]; 10 mg/kg intravenously): 70.06% | Hypertension (%)* Exp 4 ([3]; 10 mg/kg intravenously): 65.79% | Hypertension (%)* Exp 5 ([3]; 10 mg/kg intravenously): 70.69% | Hypertension (%)* Exp 6 ([3]; 10 mg/kg intravenously): 66.21% | Hypertension (%)* Exp 1 ([3]; 25 mg/kg intravenously): 46.93% | Hypertension (%)* Exp 2 ([3]; 25 mg/kg intravenously): 55.14% | Hypertension (%)* Exp 3 ([3]; 25 mg/kg intravenously): 63.08% | Hypertension (%)* Exp 4 ([3]; 25 mg/kg intravenously): 53.95% | Hypertension (%)* Exp 5 ([3]; 25 mg/kg intravenously): 65.91% | Hypertension (%)* Exp 6 ([3]; 25 mg/kg intravenously): 58.66% | rank of potency of the various cocoa procyanidins, hypotension ([3]; considering the highest dose used): hexamer=tetramer>pentamer>trimer>dimer=monomer | decrease in blood pressure ([3]; intravenous injection, solvent alone 15±5%): about 20% | % Relaxation [2, 4]: 0%

lipopolysaccharide [LPS, reference compound]
production of nitric oxide by HUVEC (in words) ([1]; 100 ng/ml): marked production of nitric oxide | Nitric Oxide Production by HUVEC, Mean ([1]; LPS 100 mg/ml): 14.4 μmol nitrite/10^6 cells/48 h | Nitric Oxide Production by HUVEC, Exp. 1 ([1]; LPS 100): 15.6 μmol nitrite/10^6 cells/48 h | Nitric Oxide Production by HUVEC, Exp. 2 ([1]; LPS 100): 14.3 μmol nitrite/10^6 cells/48 h | Nitric Oxide Production by HUVEC, Exp. 3 ([1]; LPS 100): 13.2 μmol nitrite/10^6 cells/48 h

— patent publication US8715749B2, “Products containing polyphenol(s) and L-arginine” (priority 1998, dated 2014)
